Data on 25 molecules can be found in patent US11174233B1, “Anti-cancer compounds having oxazolone derivation” (King Abdulaziz University, priority 2019, dated 2021).

Data set [1] has as its system MCF-7 (breast) cancer cells. The data set is described as follows: SRB cytotoxicity assay against MCF7. It is filed as cell-based, human. As to conditions: 72 h treatment. Here is the method: (§1) MCF-7 (breast) and PC3 (prostate) cancer cells were each grown in RPMI-1640 medium supplemented with 10% heat inactivated FBS, 50 units/mL of penicillin, and […] of streptomycin. The cultures were maintained at 37° C. in a humidified atmosphere containing 5% CO2. The cells were maintained as “monolayer culture” by serial sub-culturing.
(§2) Cytotoxicity was determined using SRB method as previously described by Skehan et al. [Skehan P.; Storeng R.; Scudiero D.; Monks A.; McMahon J.; al., V. D. e., New colorimetric cytotoxicity assay for anticancer drug screening. […] Exponentially growing cells were collected using 0.25% Trypsin-EDTA and seeded in 96-well plates at 1000-2000 cells/well in RPMI-1640 supplemented medium. After 24 h, cells were incubated for 72 h with various concentrations of the tested compounds. Following 72 h treatment, the cells would be fixed with 10% trichloroacetic acid for 1 h at 4° C. Wells were stained for 10 min at room temperature with 0.4% SRB dissolved in 1% acetic acid. The plates were air dried for 24 h and the dye was solubilized with Tris-HCl for 5 min on a shaker at 1600 rpm. The optical density (OD) of each well was measured spectrophotometrically at 564 nm with an ELISA microplate reader (ChroMate-4300, FL, USA). The IC50 values were calculated according to the equation for Boltzman sigmoidal concentration—response curve using the nonlinear regression fitting models (Graph Pad, Prism Version 5).
On the technique in general: The SRB assay estimates cell density from bound dye.

Data set [2] relates to PC3 (prostate) cancer cells. Nature of the data set: SRB cytotoxicity assay against PC3. The data set is classed as cell-based, human. As to conditions: 72 h treatment. Here is the method: as §1, §2

For `CN(Cc1ccccc1)C(=O)Cc1ccc(NC(=O)/C(=C\c2ccc(Cl)cc2)NC(=O)c2ccccc2)cc1` [KIM-2245V, (E)-N-(3-((4-(2-(benzyl(methyl)amino)-2-oxoethyl)phenyl)amino)-1-(4-chlorophenyl)-3-oxoprop-1-en-2-yl)benzamide], the IC50 in data set [1] (Homo sapiens) and in data set [2] (Homo sapiens) was more than 100 µM in each case.
`O=C(Cc1ccc(NC(=O)/C(=C\c2ccccc2)NC(=O)c2ccccc2)cc1)NCc1ccccc1` [KIM-211V, (E)-N-(3-((4-(2-(benzylamino)-2-oxoethyl)phenyl)amino)-3-oxo-1-phenylprop-1-en-2-yl) benzamide]: the IC50 in data set [1] (Homo sapiens) and in data set [2] (Homo sapiens) was more than 100 µM each time.
On to `O=C(Cc1ccc(NC(=O)/C(=C\c2ccc(Cl)cc2)NC(=O)c2ccccc2)cc1)Nc1ccccc1` [KIM-22101V, (E)-N-(1-(4-chlorophenyl)-3-oxo-3-((4-(2-oxo-2-(phenylamino)ethyl)phenyl)amino)prop-1-en-2-yl)benzamide], for which the 50% inhibitory concentration (IC50) in data set [1] (Homo sapiens) and in data set [2] (Homo sapiens) was more than 100 µM each time.
For the molecule `O=C(Cc1ccc(NC(=O)/C(=C\c2ccc(Cl)cc2)NC(=O)c2ccccc2)cc1)NCc1ccco1` [KIM-2230V, (E)-N-(1-(4-chlorophenyl)-3-((4-(2-((furan-2-ylmethyl)amino)-2-oxoethyl)phenyl)amino)-3-oxoprop-1-en-2-yl)benzamide], the IC50 (as a rule, the concentration that inhibits the measured activity by half) in data set [1] (Homo sapiens) was more than 100 µM; in data set [2] (Homo sapiens), 97.8 µM.
`COc1cc(/C=C(/NC(=O)c2ccccc2)C(=O)Nc2ccc(CC(=O)NCc3ccccc3)cc2)ccc1O` [KIM-231V, (E)-N-(3-((4-(2-(benzylamino)-2-oxoethyl)phenyl)amino)-1-(4-hydroxy-3-methoxyphenyl)-3-oxoprop-1-en-2-yl)benzamide]: the half-inhibitory concentration (IC50) in data set [1] (Homo sapiens) and in data set [2] (Homo sapiens) was more than 100 µM in each case.
Take `O=C(Cc1ccc(N2C(=O)/C(=C/c3ccc(Cl)cc3)N=C2c2ccccc2)cc1)NCc1ccccc1` [KIM-221C, (Z)—N-benzyl-2-(4-(4-(4-chlorobenzylidene)-5-oxo-2-phenyl-4,5-dihydro-1H-imidazol-1-yl)phenyl)acetamide]: the melting point – broadly, the temperature of the solid-liquid transition – fell in the range of 218 to 220 °C.
`CC(=O)N/C(=C/c1ccccc1)C(=O)Nc1ccc(CC(=O)NCc2ccccc2)cc1` [KIM-111V, (E)-2-acetamido-N-(4-(2-(benzylamino)-2-oxoethyl)phenyl)-3-phenylacrylamide] came in with a melting point of 197 °C. For the same molecule, the IC50 in data set [1] (Homo sapiens) is more than 100 µM. The molecule further showed an IC50 in data set [2] (Homo sapiens) of more than 100 µM.
With `Cc1cc(F)ccc1/C=C(/NC(=O)c1ccccc1)C(=O)Nc1ccc(CC(=O)NCc2ccccc2)cc1` [KIM-2101V, (E)-N-(3-((4-(2-(benzylamino)-2-oxoethyl)phenyl)amino)-1-(4-fluoro-2-methylphenyl)-3-oxoprop-1-en-2-yl)benzamide], the IC50 in data set [1] (Homo sapiens) and in data set [2] (Homo sapiens) was more than 100 µM in each case.
On to `CC(NC(=O)Cc1ccc(NC(=O)/C(=C\c2ccc(Cl)cc2)NC(=O)c2ccccc2)cc1)c1ccccc1` (stereo not shown) [KIM-2247V, (E)-N-(1-(4-chlorophenyl)-3-oxo-3-((4-(2-oxo-2-((1-phenylethyl)amino)ethyl)phenyl)amino)prop-1-en-2-yl)benzamide], for which the IC50 in data set [1] (Homo sapiens) and in data set [2] (Homo sapiens) was more than 100 µM throughout.
Consider `O=C(Cc1ccc(N2C(=O)/C(=C/c3ccccc3)N=C2c2ccccc2)cc1)NCc1ccccc1` [KIM-211C, (Z)—N-benzyl-2-(4-(4-benzylidene-5-oxo-2-phenyl-4,5-dihydro-1H-imidazol-1-yl)phenyl)acetamide], for which the melting point is 218 to 219 °C.
In the case of `CC1=N/C(=C\c2ccc(Cl)cc2)C(=O)N1c1ccc(CC(=O)NCc2ccccc2)cc1` [KIM-121C, (Z)—N-benzyl-2-(4-(4-(4-chlorobenzylidene)-2-methyl-5-oxo-4,5-dihydro-1H-imidazol-1-yl)phenyl)acetamide], the melting point was 209 to 211 °C. In data set [2] (Homo sapiens), the IC50 turned out to be 6.86 µM.
In the case of `COc1cc(/C=C2\N=C(C)N(c3ccc(CC(=O)NCc4ccccc4)cc3)C2=O)ccc1O` [KIM-131C, (Z)—N-benzyl-2-(4-(4-(4-hydroxy-3-methoxybenzylidene)-2-methyl-5-oxo-4,5-dihydro-1H-imidazol-1-yl)phenyl)acetamide], the results for the half-inhibitory concentration (IC50) in data set [1] (Homo sapiens) and in data set [2] (Homo sapiens) were 9.48 µM and 5.83 µM, respectively.
In turn, `COc1ccc(/C=C2\N=C(c3ccccc3)N(c3ccc(CC(=O)NCc4ccccc4)cc3)C2=O)cc1` [KIM-261C, (Z)—N-benzyl-2-(4-(4-(4-methoxybenzylidene)-5-oxo-2-phenyl-4,5-dihydro-1H-imidazol-1-yl)phenyl)acetamide] returned a melting point of 193 °C.
In the case of `COc1ccc(CNC(=O)Cc2ccc(NC(=O)/C(=C\c3ccc(Cl)cc3)NC(=O)c3ccccc3)cc2)cc1` [KIM-2216V, (E)-N-(1-(4-chlorophenyl)-3-((4-(2-((4-methoxybenzyl)amino)-2-oxoethyl)phenyl)amino)-3-oxoprop-1-en-2-yl)benzamide], the IC50 in data set [1] (Homo sapiens) and in data set [2] (Homo sapiens) was more than 100 µM throughout.
On to `O=C(Cc1ccc(NC(=O)/C(=C\c2ccc(Cl)cc2)NC(=O)c2ccccc2)cc1)NCc1ccc(F)cc1` [KIM-2248V, (E)-N-(1-(4-chlorophenyl)-3-((4-(2-((4-fluorobenzyl)amino)-2-oxoethyl)phenyl)amino)-3-oxoprop-1-en-2-yl)benzamide], for which the concentration for half-maximal inhibition (IC50) came out at 89.6 µM in data set [1] (Homo sapiens) and 85.1 µM in data set [2] (Homo sapiens).
In the case of `CC1=N/C(=C\c2ccccc2)C(=O)N1c1ccc(CC(=O)NCc2ccccc2)cc1` [KIM-111C, (Z)—N-benzyl-2-(4-(4-benzylidene-2-methyl-5-oxo-4,5-dihydro-1H-imidazol-1-yl)phenyl)acetamide], the melting point was 164 to 165 °C.
In the case of `O=C(Cc1ccc(NC(=O)/C(=C\c2ccc(Cl)cc2)NC(=O)c2ccccc2)cc1)NCCc1ccccc1` [KIM-2246V, (E)-N-(1-(4-chlorophenyl)-3-oxo-3-((4-(2-oxo-2-(phenethylamino)ethyl)phenyl)amino)prop-1-en-2-yl)benzamide], the IC50 in data set [1] (Homo sapiens) and in data set [2] (Homo sapiens) was more than 100 µM throughout.
For `COc1cc(/C=C(/NC(C)=O)C(=O)Nc2ccc(CC(=O)NCc3ccccc3)cc2)ccc1O` [KIM-131V, (E)-2-acetamido-N-(4-(2-(benzylamino)-2-oxoethyl)phenyl)-3-(4-hydroxy-3-methoxyphenyl) acrylamide], the figures for the IC50 in data set [1] and in data set [2] were 53.5 µM and 61.3 µM, respectively.
Turning to `O=C(Cc1ccc(NC(=O)/C(=C\c2ccc(Cl)cc2)NC(=O)c2ccccc2)cc1)NCc1ccc(-c2ccccc2)cc1` [KIM-2249V, (E)-N-(3-((4-(2-(([1,1′-biphenyl]-4-ylmethyl)amino)-2-oxoethyl)phenyl)amino)-1-(4-chlorophenyl)-3-oxoprop-1-en-2-yl)benzamide], the IC50 in data set [1] (Homo sapiens) worked out at 87.5 µM; in data set [2] (Homo sapiens), 92.2 µM.
For `COc1cc(/C=C2\N=C(c3ccccc3)N(c3ccc(CC(=O)NCc4ccccc4)cc3)C2=O)ccc1O` [KIM-231C, (Z)—N-benzyl-2-(4-(4-(4-hydroxy-3-methoxybenzylidene)-5-oxo-2-phenyl-4,5-dihydro-1H-imidazol-1-yl)phenyl)acetamide], the melting point was in the range of 109 to 112 °C.
In the case of `COc1ccc(/C=C(/NC(=O)c2ccccc2)C(=O)Nc2ccc(CC(=O)NCc3ccccc3)cc2)cc1` [KIM-261V, (E)-N-(3-((4-(2-(benzylamino)-2-oxoethyl)phenyl)amino)-1-(4-methoxyphenyl)-3-oxoprop-1-en-2-yl)benzamide], the concentration for half-maximal inhibition (IC50) in data set [1] (Homo sapiens) and in data set [2] (Homo sapiens) was more than 100 µM throughout.
As for `O=C(Cc1ccc(NC(=O)/C(=C\c2ccc(Cl)cc2)NC(=O)c2ccccc2)cc1)NCc1cccc(F)c1` [KIM-2250V, (E)-N-(1-(4-chlorophenyl)-3-((4-(2-((3-fluorobenzyl)amino)-2-oxoethyl)phenyl)amino)-3-oxoprop-1-en-2-yl)benzamide], the IC50 in data set [1] (Homo sapiens) and in data set [2] (Homo sapiens) was more than 100 µM throughout.
With `O=C(Cc1ccc(NC(=O)C(=Cc2ccc(Cl)cc2)NC(=O)c2ccccc2)cc1)NCc1ccccc1` (stereo in doubt) [KIM-221V, (E)-N-(3-((4-(2-(benzylamino)-2-oxoethyl)phenyl)amino)-1-(4-chlorophenyl)-3-oxoprop-1-en-2-yl)benzamide], the figures for the IC50 in data set [1] (Homo sapiens) and in data set [2] (Homo sapiens) were 3.12 µM and 4.08 µM, respectively.
For the molecule `CC(=O)N/C(=C/c1ccc(Cl)cc1)C(=O)Nc1ccc(CC(=O)NCc2ccccc2)cc1` [KIM-121V, (E)-2-acetamido-N-(4-(2-(benzylamino)-2-oxoethyl)phenyl)-3-(4-chlorophenyl)acrylamide], the 50% inhibitory concentration (IC50) is more than 100 µM in data set [1] (Homo sapiens) and 57.3 µM in data set [2] (Homo sapiens).
On to `COc1ccc(/C=C(/NC(C)=O)C(=O)Nc2ccc(CC(=O)NCc3ccccc3)cc2)cc1` [KIM-161V, (E)-2-acetamido-N-(4-(2-(benzylamino)-2-oxoethyl)phenyl)-3-(4-methoxyphenyl) acrylamide], for which the IC50 was determined as 44.3 µM in data set [1] and 41.1 µM in data set [2].
